Results as given in patent publication US20160113921A1, “COMBINATION THERAPY COMPRISING OXAZOLIDINONE-QUINOLONES FOR USE IN TREATING BACTERIAL INFECTIONS” (MORPHOCHEM AKTIENGESELLSCHAFT FÜR KOMBINATORISCHE CHEMIE, priority 2013, published 2016).
In brackets after ≈: the same amount, converted by molar mass. Read-outs that look alike come from different tables or passages of the source.

How the values were obtained:
Format in all cases: cell-based
[1] = system: S. aureus DSM 11823, clone 16 (MSSA, quinolone-resistant); assay: microbe, parasite or virus in culture; conditions: Staphylococcus aureus
Protocol: (§1) MIC-testing was done immediately after preparation of the dilutions. All tests were done in duplicate and repeated once on a separate occasion.
(§2) 1 mL of the bacterial suspension was transferred into a tube containing 10 mL CAMHB and was vortexed thoroughly. (S. pneumoniae 1 mL in 10 mL CAMHB+5% lysed horse blood). Columns 1-15 of the 96-well plate were inoculated with 5 μL of this suspension (1-15=antibacterial solution, 16=sterile medium without test item).
(§3) Turbidity was read visually with a mirror.

[2] = system: S. aureus Visa Mu 50 (MRSA, vancomycin intermediate susceptible); assay: MIC, broth microdilution (CLSI), CAMHB; conditions: Staphylococcus aureus; monosubstance; Sa VisaMu50; read-out: MIC
Protocol: as §1, §2, §3

[3] = system: E. faecalis V583 (VanB); assay: MIC, broth microdilution (CLSI), CAMHB; conditions: Enterococcus faecalis; monosubstance; Ef V583; read-out: MIC
Protocol: as §1, §2, §3

[4] = system: E. faecium UW 3695 (linezolid and quinolone-resistant); assay: MIC, broth microdilution (CLSI), CAMHB; conditions: Enterococcus faecium; monosubstance; Efc UW3695; read-out: MIC
Protocol: as §1, §2, §3

[5] = system: S. aureus ATCC 29213; assay: MIC, broth microdilution (CLSI), CAMHB; conditions: Staphylococcus aureus; monosubstance; Sa ATCC29213; read-out: MIC
Protocol: as §1, §2, §3

[6] = system: S. pneumoniae ATCC 33400; assay: MIC, broth microdilution (CLSI), CAMHB; conditions: Streptococcus pneumoniae; monosubstance; Spn ATCC33400; read-out: MIC
Protocol: as §1, §2, §3

[7] = system: E. faecalis ATCC 29212; assay: MIC, broth microdilution (CLSI), CAMHB; conditions: Enterococcus faecalis; monosubstance; Ef ATCC29212; read-out: MIC
Protocol: as §1, §2, §3

[8] = system: S. aureus NRS-119 (MRSA, linezolid- and quinolone-resistant); assay: MIC, broth microdilution (CLSI), CAMHB; conditions: Staphylococcus aureus
Protocol: as §1, §2, §3

[9] = system: S. pneumoniae BAY 19397 (penicillin-, macrolide-, quinolone-resistant); assay: MIC, broth microdilution (CLSI), CAMHB; conditions: Streptococcus pneumoniae, monosubstance; Spn 19397; read-out: MIC
Protocol: as §1, §2, §3

[10] = system: E. faecium DSMZ 2146; assay: MIC, broth microdilution (CLSI), CAMHB; conditions: Enterococcus faecium
Protocol: as §1, §2, §3

[11] = system: S. aureus ATCC 33593 (MRSA); assay: MIC, broth microdilution (CLSI), CAMHB; conditions: Staphylococcus aureus; monosubstance; Sa ATCC33593; read-out: MIC
Protocol: as §1, §2, §3

[12] = system: Gram-negative test strains (Enterobacteriaceae, non-fermenters); assay: MIC testing, statements on the Gram-negative strain panel
Source text: as §1

[13] = system: P. mirabilis NRZ-00185 (AmpC, type CMY-2); assay: MIC, broth microdilution (CLSI), CAMHB; conditions: Proteus mirabilis
Protocol: as §1, §2, §3

[14] = system: K. pneumoniae ATCC 13883; assay: MIC, broth microdilution (CLSI), CAMHB; conditions: Klebsiella pneumoniae; monosubstance; Kp ATCC13883; read-out: MIC
Protocol: as §1, §2, §3

[15] = system: P. aeruginosa NRZ-00425 (VIM-1); assay: MIC, broth microdilution (CLSI), CAMHB; conditions: Pseudomonas aeruginosa
Protocol: as §1, §2, §3

[16] = system: E. cloacae NRZ-00239 (VIM-1); assay: MIC, broth microdilution (CLSI), CAMHB; conditions: Enterobacter cloacae; monosubstance; Ecl NRZ00239; read-out: MIC
Protocol: as §1, §2, §3

[17] = system: E. coli GNS-2601 (ESBL CTX-M-15); assay: MIC, broth microdilution (CLSI), CAMHB; conditions: Escherichia coli
Protocol: as §1, §2, §3

[18] = system: E. cloacae ATCC 13047; assay: MIC, broth microdilution (CLSI), CAMHB; conditions: Enterobacter cloacae; monosubstance; Ecl ATCC13047; read-out: MIC
Protocol: as §1, §2, §3

[19] = system: K. pneumoniae NRZ-00103 (KPC-2); assay: MIC, broth microdilution (CLSI), CAMHB; conditions: Klebsiella pneumoniae
Protocol: as §1, §2, §3

[20] = system: E. coli NRZ-00401 (metallo β-lactamase VIM-1); assay: MIC, broth microdilution (CLSI), CAMHB; conditions: Escherichia coli; monosubstance; Ec NRZ00401; read-out: MIC
Protocol: as §1, §2, §3

[21] = system: P. aeruginosa ATCC 10145; assay: MIC, broth microdilution (CLSI), CAMHB; conditions: Pseudomonas aeruginosa; monosubstance; Pa ATCC10145; read-out: MIC
Protocol: as §1, §2, §3

[22] = system: K. pneumoniae NRZ-00535 (VIM-1); assay: MIC, broth microdilution (CLSI), CAMHB; conditions: Klebsiella pneumoniae
Protocol: as §1, §2, §3

[23] = system: P. mirabilis ATCC 9240; assay: MIC, broth microdilution (CLSI), CAMHB; conditions: Proteus mirabilis; monosubstance; Pm ATCC9240; read-out: MIC
Protocol: as §1, §2, §3

[24] = system: E. coli ATCC 25922; assay: MIC, broth microdilution (CLSI), CAMHB; conditions: Escherichia coli; monosubstance; Ec ATCC25922; read-out: MIC
Protocol: as §1, §2, §3

[25] = system: K. pneumoniae NRZ-00002 (OXA-48); assay: MIC, broth microdilution (CLSI), CAMHB; conditions: Klebsiella pneumoniae; monosubstance; Kp NRZ00002; read-out: MIC
Protocol: as §1, §2, §3

[26] = system: E. coli NRZ-00302 (metallo β-lactamase NDM-1); assay: MIC, broth microdilution (CLSI), CAMHB; conditions: Escherichia coli
Protocol: as §1, §2, §3

| Compound | MIC [1] [µg/mL] | MIC [2] [µg/mL] | MIC [3] [µg/mL] | MIC [4] [µg/mL] | MIC [5] [µg/mL] | MIC [6] [µg/mL] | MIC [7] [µg/mL] | MIC [9] [µg/mL] | MIC [11] [µg/mL] | MIC [14] [µg/mL] | MIC [16] [µg/mL] | MIC [18] [µg/mL] | MIC [20] [µg/mL] | MIC [21] [µg/mL] | MIC [23] [µg/mL] | MIC [24] [µg/mL] | MIC [25] [µg/mL] | further results |
| --- | --- | --- | --- | --- | --- | --- | --- | --- | --- | --- | --- | --- | --- | --- | --- | --- | --- | --- |
| CC1(C)S[C@@H]2[C@H](NC(=O)[C@H](N)c3ccccc3)C(=O)N2[C@H]1C(=O)O [ampicillin] | 0.007 (≈ 0.02 µM) | 256 (≈ 733 µM) | 0.5 (≈ 1.43 µM) | 32 (≈ 91.6 µM) | 0.5 (≈ 1.43 µM) | 0.0075 (≈ 0.0215 µM) | 1 (≈ 2.86 µM) | 1 (≈ 2.86 µM) | 64 (≈ 183 µM) | – | – | – | – | – | – | – | – | MIC [8]: 128 µg/mL (≈ 366 µM); MIC ([10]; DSMZ2146): 128 µg/mL (≈ 366 µM) |
| CC(C)(O/N=C(\C(=O)N[C@@H]1C(=O)N2C(C(=O)[O-])=C(C[n+]3ccccc3)CS[C@H]12)c1csc(N)n1)C(=O)O [ceftazidime] | – | – | – | – | – | – | – | – | – | 0.25 (≈ 0.457 µM) | 4 (≈ 7.32 µM) | 2 (≈ 3.66 µM) | 32 (≈ 58.5 µM) | 2 (≈ 3.66 µM) | 0.5 (≈ 0.915 µM) | 0.03 (≈ 0.0549 µM) | 64 (≈ 117 µM) | MIC ([12]; E. coli, K. pneumoniae, and P. mirabilis wild type strains, read-out: MIC (inhibitory concentration)): < 0.5 µg/mL; MIC ([12]; remainder / remaining / all other test strains, as worded for each agent, read-out: MIC): > 2 µg/mL; MIC [13]: 128 µg/mL (≈ 234 µM); MIC ([15]; monosubstance, Pa NRZ00425, read-out: MIC): 32 µg/mL (≈ 58.5 µM); MIC [17]: 128 µg/mL (≈ 234 µM); MIC [19]: > 256 µg/mL; MIC [22]: > 256 µg/mL; MIC [26]: > 256 µg/mL |
| CO/N=C(\C(=O)N[C@@H]1C(=O)N2C(C(=O)O)=C(CSc3nc(=O)c(=O)[nH]n3C)CS[C@H]12)c1csc(N)n1 [ceftriaxone] | 4 (≈ 7.21 µM) | 16 (≈ 28.9 µM) | 0.5 (≈ 0.902 µM) | 32 (≈ 57.7 µM) | 4 (≈ 7.21 µM) | 0.0075 (≈ 0.0135 µM) | 0.5 (≈ 0.902 µM) | 4 (≈ 7.21 µM) | > 256 | – | – | – | – | – | – | – | – | MIC ([8]; monosubstance, Sa NRS119, read-out: MIC): > 256 µg/mL; MIC ([10]; monosubstance, Efc DSMZ2146, read-out: MIC): 0.5 µg/mL (≈ 0.902 µM) |
| C[C@@H](O)[C@H]1C(=O)N2C(C(=O)O)=C(SCCN=CN)C[C@H]12 [imipenem] | – | – | – | – | – | – | – | – | – | 0.25 (≈ 0.835 µM) | 0.25 (≈ 0.835 µM) | 0.25 (≈ 0.835 µM) | 4 (≈ 13.4 µM) | 0.5 (≈ 1.67 µM) | 1 (≈ 3.34 µM) | 0.03 (≈ 0.1 µM) | 2 (≈ 6.68 µM) | MIC ([12]; all the test strains except P. aeruginosa NRZ-00185 and K. pneumoniae NRZ-00103, read-out: MIC (inhibitory concentration)): < 8 µg/mL; MIC ([13]; monosubstance, Pm NRZ00185, read-out: MIC): 1 µg/mL (≈ 3.34 µM); MIC [15]: 128 µg/mL (≈ 428 µM); MIC ([17]; monosubstance, Ec GNS2601, read-out: MIC): 0.03 µg/mL (≈ 0.1 µM); MIC ([19]; monosubstance, Kp NRZ00103, read-out: MIC): 32 µg/mL (≈ 107 µM); MIC ([22]; monosubstance, Kp NRZ00535, read-out: MIC): 8 µg/mL (≈ 26.7 µM); MIC ([26]; monosubstance, Ec NRZ00302, read-out: MIC): 4 µg/mL (≈ 13.4 µM) |
